Consider three molecules from US20240299321A1, “METHODS TO SENSITIZE CANCER CELLS AND STANDARDIZED SCREENING ASSAY FOR IMMUNOTHERAPY” (THE TRUSTEES OF INDIANA UNIVERSITY, priority 2020, published 2024).

This series deals with PDOs from breast cancer patients. Nature of the series: Patient-derived organoids co-cultured with autologous CD8+ T cells. In kind it is cell-based, human. Conditions: for T cell cytotoxicity: PDO2 and PDO7. The method, then: Breast tumor organoid culture: Single cells isolated from EO771-derived tumors in tumor-bearing C57BL/6 mice were suspended into cold mouse breast cancer culture medium containing 10% Matrigel (Corning) with a concentration of 2×10^5 cells ml^−1. The cells (2 ml) were seeded into each well of pre-warmed 6-well microplate with ultra-low attachment surface (Corning) and cultured at 37° C. with 5% CO2. The same volume of fresh culture medium was added every other day. After 7-day culture, tumor organoids were collected using cell strainers with pore size of 70 and 150 μm. For human tumor organoid culture, 2 ml of NY-ESO-1+ MDA-MB-468 cells with a concentration of 2×10^5 cells ml-1 were seeded into each well of the prewarmed 6-well microplate with ultra-low attachment surface. The cells were cultured for two days to generate tumor spheroids. The resulting spheroids were mixed with cancer associated fibroblasts (CAFs) with a ratio of 2:1 (tumor cells versus CAFs) and cultured in the human breast cancer organoid culture medium3 for 5 days. Finally, the MDA-MB-468 tumor organoids with diameter of 70˜150 μm were used for co-culture with NY-ESO-1-specific human CD8+ T cells (ASTARTE Biologics). Patient-derived organoids (PDOs) were cultured following the same procedures as mouse EO771 tumor organoids using human breast cancer organoid culture medium.
Cytotoxicity of CD8+ T cells in the co-culture with tumor organoids We generated mouse EO771 (Luc+OVA+) cell line that presents OVA257-264 antigen (from chicken ovalbumin) and human MDA-MB-468 (NY-ESO-1+) cell line that presents NY-ESO-1 antigen for use in the T cell-mediated cytotoxicity assay. OVA-specific CD8+ T cells were isolated from the spleen of OT-I mouse that contains transgenic inserts of Tcra-V2 and Tcrb-V5 genes. The transgenic T cell receptor can recognize the ovalbumin peptide SIINFEKL (OVA257-264; SEQ ID NO: 55). Anti-NY-ESO-1 human CD8^+ T cells (CELLERO™) were used to recognize the NY-ESO-1+ MDA-MB-468 cells. Autologous human CD8+ T cells were isolated from patient tumor tissues and amplified in the DMEM/F12 medium supplemented with 10% FBS, 2 mM Ultraglutamine I, 1% penicillin/streptomycin and 10 ng mL-1 of human IL2 for 7 days. The CD8+ T cells were stimulated by the T-activator CD3/CD28 Dynabeads (Gibco, 11452D for mouse and 11131D for human) for 48 h prior to use for cytotoxicity assay. Mouse and human tumor organoids with diameter between 70 and 150 μm were collected and mixed with corresponding CD8+ T cells in DMEM/F12 medium supplemented with 10% FBS, 2 mM Ultraglutamine I, 1% penicillin/streptomycin and 10 ng mL-1 IL2 (Biolegend, mouse: 575402; human: 589102) at a ratio of organoids versus T cells at 1:200 in the microplates with ultra-low attachment surface. The cells were co-cultured for 24 h and subject to further analyses, such as optical and fluorescence imaging, luciferase assay or flow cytometry.
There is an unmet clinical need to predict responsiveness to new cancer immunotherapy. Both syngeneic mouse models and humanized patient-derived xenograft (PDX) models are time-consuming and not cost-efficient. Here, we wanted to apply the standardized tumor organoid model in this study to predict the therapeutic responses to BML-210, CUDC-101 and GSK-LSD1. In this setting, autologous CD8+ T cells were isolated from patient tumor tissues and amplified for a week. Patient-derived organoids (PDOs) were generated from 10 patients with breast cancer (Table 2). The PDOs from each patient were characterized and compared with their originating tumors using Hematoxylin and eosin (H&E) staining and immunofluorescence imaging analysis. EpCAM and SMA were used as biomarkers to identify tumor epithelial cells and cancer-associated fibroblast cells, respectively, which are the main components of a breast tumor tissue. […] We were able to isolate reasonable numbers (>1×10^5) of autologous T cells from 8 out of 10 breast tumor tissues. […]

The mark [1] stands for this setting: PDO1, PDO3, PDO4, PDO5 and PDO8, 48 h pretreatment.

Turning to `c1ccc([C@@H]2C[C@H]2NC2CCNCC2)cc1` [GSK-LSD1], the T cell cytotoxicity result is “only moderate increases (statistically not significant)”. Also, under setting [1], the T cell-mediated cytotoxicity result was “significantly higher T cell-mediated cytotoxicity”. In addition, the T cell-mediated cytotoxicity entry (PDO6) is listed as “higher T cell-mediated cytotoxicity”.
For `C#Cc1cccc(Nc2ncnc3cc(OC)c(OCCCCCCC(=O)NO)cc23)c1` [CUDC-101], the T cell cytotoxicity entry was “only moderate increases (statistically not significant)”. Under setting [1], the T cell-mediated cytotoxicity entry was “significantly higher T cell-mediated cytotoxicity”. Further, the T cell-mediated cytotoxicity entry (PDO6) is on record as “modest effect”.
As for `Nc1ccccc1NC(=O)CCCCCCC(=O)Nc1ccccc1` [BML-210], the T cell cytotoxicity entry is on record as “only moderate increases (statistically not significant)”. Moreover, under setting [1], the T cell-mediated cytotoxicity entry was “significantly higher T cell-mediated cytotoxicity”. Under “PDO6”, the T cell-mediated cytotoxicity result is listed as “higher T cell-mediated cytotoxicity”.
